Results: US10913744B2, “LRRK2 inhibitors and methods of making and using the same” (Dana-Farber Cancer Institute, Inc., priority 2015, dated 2021)
pIC50: −log10 of the molar value. Where two headings read alike, the source gives them in different places.

Experiments:
wild type LRRK2 = wild type LRRK2 (Homo sapiens (Human), UniProt Q5S007); test: LRRK2 enzyme kinase assay, wild type; format: biochemical
LRRK2[G2019S] = LRRK2[G2019S] (Homo sapiens (Human), UniProt Q5S007, G2019S); test: LRRK2 enzyme kinase assay, G2019S; format: biochemical
Chain of LRRK2[G2019S] (Q5S007 1326-2527 G2019S): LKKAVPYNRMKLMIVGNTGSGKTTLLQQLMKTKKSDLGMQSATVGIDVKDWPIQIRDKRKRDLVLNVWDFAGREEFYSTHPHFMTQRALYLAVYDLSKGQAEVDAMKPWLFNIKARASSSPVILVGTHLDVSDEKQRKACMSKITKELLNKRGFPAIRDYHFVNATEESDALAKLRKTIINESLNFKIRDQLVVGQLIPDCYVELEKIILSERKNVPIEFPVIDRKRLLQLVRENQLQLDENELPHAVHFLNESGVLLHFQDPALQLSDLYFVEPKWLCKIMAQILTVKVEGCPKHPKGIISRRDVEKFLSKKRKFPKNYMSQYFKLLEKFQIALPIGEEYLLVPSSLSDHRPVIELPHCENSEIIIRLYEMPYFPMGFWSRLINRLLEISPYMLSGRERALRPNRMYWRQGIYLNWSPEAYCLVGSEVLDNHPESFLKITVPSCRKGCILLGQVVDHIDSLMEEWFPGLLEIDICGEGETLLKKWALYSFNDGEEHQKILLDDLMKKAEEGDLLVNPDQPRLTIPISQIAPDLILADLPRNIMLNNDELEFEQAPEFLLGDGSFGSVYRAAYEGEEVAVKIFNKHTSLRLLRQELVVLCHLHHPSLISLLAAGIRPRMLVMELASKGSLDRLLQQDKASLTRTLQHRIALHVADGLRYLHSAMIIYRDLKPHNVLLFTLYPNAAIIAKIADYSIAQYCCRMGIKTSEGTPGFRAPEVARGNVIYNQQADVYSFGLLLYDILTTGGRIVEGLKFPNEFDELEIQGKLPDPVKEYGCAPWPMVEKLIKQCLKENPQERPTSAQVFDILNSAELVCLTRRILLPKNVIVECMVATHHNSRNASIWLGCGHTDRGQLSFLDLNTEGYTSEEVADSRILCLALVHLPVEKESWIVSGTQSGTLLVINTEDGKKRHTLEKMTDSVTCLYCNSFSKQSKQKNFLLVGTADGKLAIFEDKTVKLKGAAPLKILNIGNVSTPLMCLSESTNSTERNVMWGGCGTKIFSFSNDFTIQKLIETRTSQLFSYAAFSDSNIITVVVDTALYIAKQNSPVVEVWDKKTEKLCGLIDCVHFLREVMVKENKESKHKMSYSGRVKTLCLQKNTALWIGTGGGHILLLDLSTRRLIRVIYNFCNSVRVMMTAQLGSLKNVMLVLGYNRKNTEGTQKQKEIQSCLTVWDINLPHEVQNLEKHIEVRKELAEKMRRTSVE

LRRK2 [1] = target: LRRK2 (Mus musculus (Mouse), UniProt Q5S006); test: Pharmacodynamic study, LRRK2 Ser910/Ser935 phosphorylation in mouse kidney, spleen and brain; format: in vivo
Chain of LRRK2 (Mus musculus (Mouse), UniProt Q5S006) (Q5S006 whole entry, looked up): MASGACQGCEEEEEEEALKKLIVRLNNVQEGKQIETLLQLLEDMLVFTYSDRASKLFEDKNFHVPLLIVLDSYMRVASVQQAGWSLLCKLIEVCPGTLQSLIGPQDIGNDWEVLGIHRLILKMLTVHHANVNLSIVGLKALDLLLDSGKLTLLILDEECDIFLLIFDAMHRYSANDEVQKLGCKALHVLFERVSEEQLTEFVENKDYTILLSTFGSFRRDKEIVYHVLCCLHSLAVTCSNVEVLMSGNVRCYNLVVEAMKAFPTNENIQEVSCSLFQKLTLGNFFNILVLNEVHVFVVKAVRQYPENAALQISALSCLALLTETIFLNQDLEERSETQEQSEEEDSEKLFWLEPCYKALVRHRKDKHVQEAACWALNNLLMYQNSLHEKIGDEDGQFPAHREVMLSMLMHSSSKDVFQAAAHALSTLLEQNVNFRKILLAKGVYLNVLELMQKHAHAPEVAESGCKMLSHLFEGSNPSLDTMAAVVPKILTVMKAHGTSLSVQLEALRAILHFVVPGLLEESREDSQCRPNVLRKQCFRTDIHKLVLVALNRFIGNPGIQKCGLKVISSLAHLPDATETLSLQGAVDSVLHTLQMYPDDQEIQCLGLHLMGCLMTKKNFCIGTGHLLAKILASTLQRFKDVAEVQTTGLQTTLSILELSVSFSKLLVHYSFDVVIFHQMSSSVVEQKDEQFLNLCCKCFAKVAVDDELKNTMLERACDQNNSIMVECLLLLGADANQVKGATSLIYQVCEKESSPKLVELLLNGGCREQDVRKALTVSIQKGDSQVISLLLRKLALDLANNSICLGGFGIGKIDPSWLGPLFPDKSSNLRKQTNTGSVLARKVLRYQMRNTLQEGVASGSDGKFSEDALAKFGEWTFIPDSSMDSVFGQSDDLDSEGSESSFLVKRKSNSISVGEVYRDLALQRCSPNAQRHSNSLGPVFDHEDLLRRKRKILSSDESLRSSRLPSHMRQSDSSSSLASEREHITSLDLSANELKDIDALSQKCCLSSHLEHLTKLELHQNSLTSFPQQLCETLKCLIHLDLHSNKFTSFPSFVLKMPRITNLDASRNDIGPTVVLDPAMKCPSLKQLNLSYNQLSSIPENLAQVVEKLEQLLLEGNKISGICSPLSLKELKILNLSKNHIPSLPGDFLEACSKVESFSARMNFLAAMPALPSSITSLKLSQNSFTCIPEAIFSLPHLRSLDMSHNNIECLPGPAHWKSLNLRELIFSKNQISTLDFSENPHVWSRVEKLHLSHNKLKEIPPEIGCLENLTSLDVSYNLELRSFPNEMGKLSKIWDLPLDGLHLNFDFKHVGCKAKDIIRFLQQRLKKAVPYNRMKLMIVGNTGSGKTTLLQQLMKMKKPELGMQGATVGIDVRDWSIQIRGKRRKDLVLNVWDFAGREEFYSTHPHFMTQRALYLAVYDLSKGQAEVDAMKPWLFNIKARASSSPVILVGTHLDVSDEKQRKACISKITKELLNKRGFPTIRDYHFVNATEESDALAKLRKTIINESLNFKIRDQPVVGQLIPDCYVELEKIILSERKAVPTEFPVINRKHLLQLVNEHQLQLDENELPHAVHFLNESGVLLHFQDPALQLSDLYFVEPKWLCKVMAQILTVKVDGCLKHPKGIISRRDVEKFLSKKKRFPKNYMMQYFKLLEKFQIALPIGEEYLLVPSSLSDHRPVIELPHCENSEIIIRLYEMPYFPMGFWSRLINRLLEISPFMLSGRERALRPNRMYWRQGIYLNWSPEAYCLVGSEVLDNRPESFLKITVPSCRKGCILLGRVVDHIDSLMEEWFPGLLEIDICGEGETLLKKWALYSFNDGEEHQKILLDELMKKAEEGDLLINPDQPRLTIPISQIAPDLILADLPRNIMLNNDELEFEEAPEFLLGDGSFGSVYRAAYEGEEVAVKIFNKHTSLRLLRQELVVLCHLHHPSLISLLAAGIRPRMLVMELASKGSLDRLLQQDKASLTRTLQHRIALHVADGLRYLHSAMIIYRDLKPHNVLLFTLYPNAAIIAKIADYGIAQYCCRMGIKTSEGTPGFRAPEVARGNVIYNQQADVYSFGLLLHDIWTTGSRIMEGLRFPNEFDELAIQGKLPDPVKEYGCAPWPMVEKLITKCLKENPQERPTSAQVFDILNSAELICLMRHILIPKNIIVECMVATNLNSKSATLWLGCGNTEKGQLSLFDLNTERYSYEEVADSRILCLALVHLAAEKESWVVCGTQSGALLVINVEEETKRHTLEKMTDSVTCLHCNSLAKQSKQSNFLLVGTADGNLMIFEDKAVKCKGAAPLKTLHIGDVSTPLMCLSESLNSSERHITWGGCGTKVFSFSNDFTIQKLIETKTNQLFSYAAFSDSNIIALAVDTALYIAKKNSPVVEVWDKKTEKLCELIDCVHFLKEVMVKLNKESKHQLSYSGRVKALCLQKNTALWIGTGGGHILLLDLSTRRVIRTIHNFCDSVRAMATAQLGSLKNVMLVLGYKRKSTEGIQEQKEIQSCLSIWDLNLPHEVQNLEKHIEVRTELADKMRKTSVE

LRRK2 [2] = conditions: G2019S LRRK2 transgenic mice, oral dosing; cited from earlier work
[3] = target: GST-LRRK2(1,326-2,517) wild-type (Homo sapiens (Human), UniProt Q5S007); test: Nictide peptide kinase assay, 100 μM ATP; format: biochemical; conditions: 20 μM Nictide
Chain of GST-LRRK2(1,326-2,517) wild-type (Q5S007 1326-2527): as the sequence (Q5S007 1326-2527 G2019S) above, with S694G counted along it
Method: (§1) Assay procedures are further discussed in Section 4 herein.
(§2) Samples were washed extensively and the incorporation of [γ-32P]ATP into Nictide was quantified by Cerenkov counting. IC50 values were calculated with GraphPad Prism using non-linear regression analysis.

[4] = target: GST-LRRK2[A2016T](1326-2517) (Homo sapiens (Human), UniProt Q5S007, A2016T); test: Nictide peptide kinase assay, 100 μM ATP; format: biochemical; conditions: 20 μM Nictide
Chain of GST-LRRK2[A2016T](1326-2517) (Q5S007 1326-2527 A2016T): as the sequence (Q5S007 1326-2527 G2019S) above, with A691T, S694G counted along it
Method: as §1, §2

[5] = target: GST-LRRK2[G2019S + A2016T](1,326-2,517) (Homo sapiens (Human), UniProt Q5S007, A2016T/G2019S); test: Nictide peptide kinase assay, 100 μM ATP; format: biochemical; conditions: 20 μM Nictide
Chain of GST-LRRK2[G2019S + A2016T](1,326-2,517) (Q5S007 1326-2527 A2016T/G2019S): as the sequence (Q5S007 1326-2527 G2019S) above, with A691T counted along it
Method: as §1, §2

[6] = target: GST-LRRK2[G2019S](1,326-2,527) (Homo sapiens (Human), UniProt Q5S007, G2019S); test: Nictide peptide kinase assay, 100 μM ATP; format: biochemical; conditions: 20 μM Nictide
Chain of GST-LRRK2[G2019S](1,326-2,527) (Q5S007 1326-2527 G2019S): as the sequence (Q5S007 1326-2527 G2019S) above
Method: as §1, §2

[7] = Table 1, ATP at Km 36 μm, read-out: Enzyme IC50 wt
[8] = Table 3, read-out: Enzyme IC50 WT

Chain of wild type LRRK2 (Q5S007 1326-2527): as the sequence (Q5S007 1326-2527 G2019S) above, with S694G counted along it

Molecule | pIC50 (wild type LRRK2; [7]) | pIC50 (LRRK2[G2019S]; Table 1, ATP at Km 112 μm) | also measured
COc1cc(C(=O)N2CCOCC2)ccc1Nc1nc(OC)c2cc[nH]c2n1 [Compound 9, (3-methoxy-4-((4-methoxy-7H-pyrrolo[2,3-d]pyrimidin-2-yl)amino)phenyl) (morpholino)methanone] | 7.87 | 7.02 | –
COc1cc(C(=O)N2CCOCC2)ccc1Nc1ncc2cc[nH]c2n1 [Compound 10] | 7.47 | 7.40 | –
COCCNc1nc(Nc2ccc(C(=O)N3CCOCC3)cc2OC)nc2[nH]ccc12 [Compound 11] | 8.40 | 8.52 | –
CCNc1nc(Nc2ccc(C(=O)N3CCOCC3)cc2OC)nc2[nH]ccc12 [Compound 12] | 8.96 | 8.60 | –
CCCNc1nc(Nc2ccc(C(=O)N3CCOCC3)cc2OC)nc2[nH]ccc12 [Compound 13] | 8.80 | 8.62 | –
COc1cc(C(=O)N2CCOCC2)ccc1Nc1nc(NCC2CCCO2)c2cc[nH]c2n1 (stereo not shown) [Compound 14] | 8.48 | 8.36 | –
COc1cc(C(=O)N2CCOCC2)ccc1Nc1nc(NC2CC2)c2cc[nH]c2n1 [Compound 15] | 8.62 | 8.33 | –
CNc1nc(Nc2cc(F)c(C(=O)N3CCOCC3)cc2OC)nc2[nH]ccc12 [Compound 16] | 8.68 | 8.15 | –
COc1cc(C(=O)N2CCOCC2)ccc1Nc1ncc2c(Cl)c[nH]c2n1 [Compound 17] | 6.80 | 6.97 | –
CCNc1nc(Nc2ccc(C(=O)N3CCOCC3)cc2OC)nc2[nH]cc(Cl)c12 [Compound 19] | 8.85 | 8.36 | –
CCCNc1nc(Nc2ccc(C(=O)N3CCOCC3)cc2OC)nc2[nH]cc(Cl)c12 [Compound 20] | 8.11 | 7.91 | –
CNc1nc(Nc2ccc(C(=O)N3CCOCC3)cc2OC)nc2[nH]cnc12 [Compound 21, (3-methoxy-4-((6-(methylamino)-9H-purin-2-yl)amino)phenyl)(morpholino) methanone] | – | – | pIC50 (wild type LRRK2; [8]): 7.46; pIC50 (LRRK2[G2019S]; Table 3): 7.36
COc1cc(C(=O)N2CCOCC2)ccc1Nc1nc(OC)c2nc[nH]c2n1 [Compound 22, (3-methoxy-4-((6-methoxy-9H-purin-2-yl)amino)phenyl)(morpholino)methanone] | – | – | pIC50 (wild type LRRK2; [8]): 8.52; pIC50 (LRRK2[G2019S]; Table 3): 8.52
COc1cc(C(=O)N2CCOCC2)ccc1Nc1nc(OC)c2cn[nH]c2n1 [Compound 24, (3-methoxy-4-((4-methoxy-1H-pyrazolo[3,4-d]pyrimidin-6-yl)amino)phenyl) (morpholino)methanone] | – | – | pIC50 (wild type LRRK2; [8]): 7.71; pIC50 (LRRK2[G2019S]; Table 3): 7.73
CCNc1nc(Nc2cc(F)c(C(=O)N3CCOCC3)cc2OC)ncc1C(F)(F)F [GNE7915, reference compound] | – | – | dephosphorylation of Ser935 of LRRK2 in kidney, spleen and brain (LRRK2 [1]; 100 mg/kg, intraperitoneal): near complete dephosphorylation of Ser935 of LRRK2; dose at which complete inhibition in brain was observed (LRRK2 [1]; doses 10, 30, 50, 100 mg/kg): 100 mg/kg; reduction of LRRK2 activity in brain (Ser935 phosphorylation) (LRRK2 [2]): significantly reduce LRRK2 activity in the brain
O=C(Nc1cccnc1)c1cc(-c2ccnc(F)c2)ccc1OCc1ccccc1 [GSK2578215A] | – | – | pIC50 [3]: 7.96; pIC50 [4]: 7.09; pIC50 [5]: 7.21; pIC50 [6]: 8.05
CNc1nc(Nc2ccc(C(=O)N3CCOCC3)cc2OC)ncc1Cl [HG-10-102-01] | – | – | reduction of LRRK2 activity in brain (Ser935 phosphorylation) (LRRK2 [2]): significantly reduce LRRK2 activity in the brain
COc1cc(C(=O)N2CCC(N3CCN(C)CC3)CC2)ccc1Nc1ncc2c(n1)N(C)c1ccccc1C(=O)N2C [LRRK2-IN-1] | – | – | pIC50 [3]: 7.89; pIC50 [4]: 5.61; pIC50 [5]: 5.51; pIC50 [6]: 8.22
N#Cc1cccc(-c2c[nH]c3ncnc(N4CCOCC4)c23)c1 [PF-06447474] | – | – | reduction of LRRK2 activity in brain (Ser935 phosphorylation) (LRRK2 [2]): capable of reducing LRRK2 activity in the brain
(3-methoxy-4-((4-(methylamino)-1H-pyrazolo[3,4-d]pyrimidin-6-yl)amino)phenyl)(morpholino)methanone [Compound 23] | – | – | pIC50 (wild type LRRK2; [8]): 7.94; pIC50 (LRRK2[G2019S]; Table 3): 8.40
